Broadly, the pIC50 is −log10 of the IC50, conventionally taken in molar units.

pIC50: −log10 of the molar value. “And” between values parts separate entries of the source, which are not always exact repeats. Equal values may be shown once. Bounds are passed on as bounds.

The nature of data set [1]: In vitro plasma stability study. Type of data set: in vitro ADME. As to conditions: mouse plasma; read-out: m-plasma t1/2. In a few lines:
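Compound at 2 μM final incubated in mouse plasma at 37 °C for up to 120 min, sampled at 0–120 min and quenched in cold MeCN with internal standard. Remaining compound quantified by LC/MS/MS; t1/2 fitted from response vs time; mean of ≥2 experiments.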

In data set [2] the target is T1, human N-acylethanolamine acid amidase (hNAAA) (Homo sapiens, UniProt Q02083).
T1 construct: expressed in transfected cells
T1 sequence (Q02083 29-359): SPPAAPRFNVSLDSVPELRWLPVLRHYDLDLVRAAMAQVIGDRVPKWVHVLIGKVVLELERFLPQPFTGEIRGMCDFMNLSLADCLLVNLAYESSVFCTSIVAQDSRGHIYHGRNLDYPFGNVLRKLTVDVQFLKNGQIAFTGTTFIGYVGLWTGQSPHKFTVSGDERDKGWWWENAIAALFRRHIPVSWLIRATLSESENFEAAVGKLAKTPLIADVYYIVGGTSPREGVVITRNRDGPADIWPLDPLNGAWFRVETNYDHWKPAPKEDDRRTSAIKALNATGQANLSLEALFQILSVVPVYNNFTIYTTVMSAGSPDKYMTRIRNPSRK
Nature of the data set: Fluorogenic hNAAA assay. It is filed as biochemical. As for the experimental part: HEK-293 cells stably transfected with the hNAAA coding sequence cloned from a human spleen cDNA library (catalog no. 639124, Clontech, Mountain View, CA, USA) were used as the enzyme source. Cells were grown in Dulbecco’s modified Eagle medium (DMEM) containing 10% FBS, 1% glutamine, 1 mM sodium pyruvate, and 500 μg mL^–1 G418. Cells were harvested, and pellets were stored at −80 °C until lysosomal-enriched lysate preparation. Cells were suspended in 20 mM Tris HCl (pH 7.4) with 0.32 M sucrose, sonicated, and centrifuged at 800 × g for 30 min at 4 °C. Supernatants were then ultracentrifuged at 12000 × g for 30 min at 4 °C. […] The suspension was finally ultracentrifuged at 105000 × g for 1 h at 4 °C, supernatants were collected, protein concentration was measured, and samples were aliquoted and stored at −80 °C until use.
The assay was run in 96-well microplates (Black OptiPlate-96F; PerkinElmer, Massachusetts, USA) in a total reaction volume of 200 μL. hNAAA protein preparation (4.0 μg) was preincubated for 30 min with various concentrations of test compounds or vehicle control (DMSO 5%) in 100 mM citrate/phosphate buffer (pH 4.5) containing 3.0 mM DTT, 0.1% NP40 0.1%, 0.05% BSA, 150 mM NaCl. […] Fluorescence was measured with an EnVision 2014 Multilabel Reader (PerkinElmer, Massachusetts, USA) using an excitation wavelength of 355 nm and emission of 460 nm. […]

Data set [3] is described as follows: In vitro microsomal stability study. Type of data set: in vitro ADME. Particulars: mouse liver microsomes. In a few lines:
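Test compound at 4.6 μM final was incubated at 37 °C with mouse liver microsomes in 0.1 M Tris HCl (pH 7.4), with an NADPH/G6P/G6PDH/MgCl2 cofactor system, and sampled at 0–60 min. Parent remaining relative to t = 0 was measured by LC/MS/MS. t1/2 came from one-phase decay regression, as the mean of at least two independent experiments.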
For orientation: Liver microsomes are vesicles of endoplasmic reticulum, rich in cytochrome P450 enzymes.

Take `CC(C)CNC(=O)n1c(=O)oc2cc(C3CCN(C)CC3)ccc21` [22m, N-Isobutyl-6-(1-methyl-4-piperidyl)-2-oxo-1,3-benzoxazole-3-carboxamide]: in data set [1], the half-life at 2 µM is 1.33 h and the half-life at 2 μM was more than 1 h. The same compound had a pIC50 in data set [2] of 5.10. For the same compound, the “m-LM [% at 60 min]” value in data set [3] (% remaining at 60 min) is 76% and 80%. Moreover, the half-life at 4.6 μM in data set [3] (pH 7.4, read-out: m-LM t1/2) was more than 1 h.

The record behind these values is article PMC7997574, “Lead Optimization of Benzoxazolone Carboxamides as Orally Bioavailable and CNS Penetrant Acid Ceramidase Inhibitors” (Journal of Medicinal Chemistry, 2020).
